{
  "source": "patent US20160280789A1",
  "about": "“METHODS FOR TREATING HEMATOLOGICAL MALIGNANCIES” (CHILDREN'S HOSPITAL LOS ANGELES, priority 2013, published 2016)",
  "key": {"[1]": {"test_system": "ITGA6fl/fl BCR/ABL1+ pre-B ALL cells", "test": "In vivo model of BCR-ABL1-transformed ITGA6fl/fl ALL in NOD/SCID mice, survival with Nilotinib", "design": "species or system mouse", "description": "A, Bioluminescence imaging was performed at indicated days post-ALL cells injection. […] C, D ITGA6 deletion was confirmed by FACS in BM cells of mice sacrificed at time of death of leukemia. E, Residual leukemia cells were determined in spleen and bone marrow by RT-PCR and F, PCR in the groups EmptyER^T2+Nilotinib and CreER^T2+Nilotinib.\nBone marrow cells from ITGA6fl/fl mice (Georges-Labouesse et al.) mice were harvested and retrovirally transformed by BCR-ABL1 (Pear et al.) in the presence of 10 ng IL7 (Peprotech) in Retronectin-(Takara) coated plates. All BCR-ABL1-transformed ALL cells derived from bone marrow of mice were maintained in Iscove's modified Dulbecco's medium (IMDM) with GlutaMAX containing 20% fetal bovine serum (Atlanta Biologica), 100 IU/ml penicillin, 100 μg/ml streptomycin (Invitrogen), and 50 μM 2-mercaptoethanol (Sigma-Aldrich) at 37° C. in a humidified incubator with 5% CO2. After cytokine-independent proliferation, BCR-ABL1 transformed ITGA6fl/fl cells were transduced retrovirally with EmptyERT2 or CreERT2. […] D-Luciferin (Promega) dissolved in PBS was injected intraperitoneally at a dose of 2.5 mg per mouse 15 minutes before measuring the luminescence signal. […] Mice were monitored for weight loss and other leukemia symptoms. Moribund mice were sacrificed and tissues were analyzed for leukemia cell infiltration to confirm leukemia as the cause of death.\nTo determine the effect of VLA6 deletion on leukemia progression in vivo, ITGA6 competent ITGA6fl/fl BCR/ABL1+ pre-B (B220+CD19+) CreERT2+ or control transduced ALL cells were lentivirally luciferase labeled and transferred into NOD/SCID mice (FIG. 6A). […] For this purpose, splenic cells and bone marrow cells of leukemia recipient animals were isolated and analyzed for BCR-ABL1 mRNA expression by RT-PCR (FIG. 6E) and BCR-ABL1 expression in genomic DNA by PCR (FIG. 6F)."}, "[2]": {"test_system": "BCR-ABL-1+ ITGA6fl/fl cells", "test": "cells", "conditions": "Mus musculus, 72 h", "description": "Viability of CreER^T2 and EmptyER^T2 ITGA6^f/f BCR-ABL1^+ CreER^T2 and EmptyER^T2 cells were plated onto tissue culture plates (no further ligand coated) and treated with Tamoxifen (1.5 μM) and Nilotinib (0.02 μM or 0.2 μM) for 1 to 3 days. Cell viability was determined by trypan blue exclusion. Y axis indicates cell viability relative to initial.\nBone marrow cells from ITGA6fl/fl mice (Georges-Labouesse et al.) mice were harvested and retrovirally transformed by BCR-ABL1 (Pear et al.) in the presence of 10 ng IL7 (Peprotech) in Retronectin-(Takara) coated plates. All BCR-ABL1-transformed ALL cells derived from bone marrow of mice were maintained in Iscove's modified Dulbecco's medium (IMDM) with GlutaMAX containing 20% fetal bovine serum (Atlanta Biologica), 100 IU/ml penicillin, 100 μg/ml streptomycin (Invitrogen), and 50 μM 2-mercaptoethanol (Sigma-Aldrich) at 37° C. in a humidified incubator with 5% CO2. After cytokine-independent proliferation, BCR-ABL1 transformed ITGA6fl/fl cells were transduced retrovirally with EmptyERT2 or CreERT2. […] After 1 μg/ml puromycin selection, VLA6 deletion was induced in vitro by addition of 1.0 μM tamoxifen (Sigma-Aldrich). […]"}},
  "note": "“Also recorded” adds a separate entry of the source. Like-named read-outs stand apart in the source and are kept apart here.",
  "data": [
    {"smiles": "Cc1cn(-c2cc(NC(=O)c3ccc(C)c(Nc4nccc(-c5cccnc5)n4)c3)cc(C(F)(F)F)c2)cn1", "note": "[Nilotinib]", "values": [
      {"measurement": "Median survival time (MST), CreERT2 (ITGA6 deleted) leukemia", "setting": "[1]; n=5, Tamoxifen-induced in vivo deletion", "value": "survived; also recorded: undefined"},
      {"measurement": "Median survival time (MST), EmptyERT2 (ITGA6 competent) leukemia", "setting": "[1]; n=6, days post-leukemia injection", "value": 39.5, "unit": "days"},
      {"measurement": "viability at 0.02 µM", "setting": "[2]; read-out: Viability of leukemia cells, CreERT2 (ITGA6 deleted)", "value": 10.2, "unit": "%"},
      {"measurement": "viability at 0.02 µM", "setting": "[2]; read-out: Viability of leukemia cells, EmptyERT2 (ITGA6 competent)", "value": 83.7, "unit": "%"}
    ]}
  ]
}
